Where a name gives a salt, the structure may show the parent alone. Read-outs that look alike come from different tables or passages of the source.
Tested on: HTT
Assay: Splicing assay (RT-qPCR on cell lysates) monitoring HTT splice variants: AJ and CJ mRNA
Type: cell-based
Conditions: concentration having 50% response
Experimental: Example 69: Exemplary Splicing Assay for Monitoring Expression Levels of Splice Variants
To set up 10 uL RT-qPCR reactions, cell lysates were transferred to 384-well qPCR plates containing the master mix according to the table below. The plates were sealed, gently vortexed, and spun down before the run. The volumes were adjusted accordingly in some instances where the reaction was carried in 20 uL. The table below summarizes the components of the RT-qPCR reactions:
The RT-qPCR reaction was performed using a QuantStudio (ThermoFisher) under the following fast cycling conditions. All samples and standards were analyzed at least in duplicate. In some instances, bulk room temperature (RT) step of 5-10 minutes was completed for all plates before proceeding with qPCR. The table below summarizes the PCR cycle:
The data analysis was performed by first determining the ΔCt vs the housekeeper gene. This ΔCt was then normalized against the DMSO control (ΔΔCt) and converted to RQ (relative quantification) using the 2^(−ΔΔCt) equation. The RQ were then converted to a percentage response by arbitrarily setting an assay window of 3.5 ΔCt for HTT-CJ and an assay window of 9 ΔCt for HTT-AJ. […] The percentage response was then fitted to the 4 parametric logistic equation to evaluate the concentration dependence of compound treatment. The increase in AJ mRNA is reported as AC50 (compound concentration having 50% response in AJ increase) while the decrease in CJ mRNA levels is reported as IC50 (compound concentration having 50% response in CJ decrease).

[1] = Table 7, decrease in CJ mRNA, read-out: HTT CJ AC50
[2] = Table 7, increase in AJ mRNA, read-out: HTT AJ AC50
[3] = Table 8, decrease in CJ mRNA, read-out: HTT CJ AC50
[4] = Table 8, increase in AJ mRNA, read-out: HTT AJ AC50

| Structure (SMILES) | AC50 [1] [µM] | AC50 [2] [µM] | AC50 [3] [µM] | AC50 [4] [µM] |
| --- | --- | --- | --- | --- |
| CC1C[C@@H](N(C)c2ccc(-c3ccc(-n4cccn4)c4cc[nH]c34)nn2)CCN1 (stereo in doubt) [Compound 111, N-methyl-N-[(2R,4S)-2-methylpiperidin-4-yl]-6-[4-(pyrazol-1-yl)-1H-indol-7-yl]pyridazin-3-amine] | > 5 | > 5 | – | – |
| CN(c1ccc(-c2ccc(-c3cn[nH]c3)c3cn[nH]c23)nn1)[C@@H]1C[C@H]2CC[C@@H](C1)N2 [Compound 104, (1R,3S,5S)—N-methyl-N-[6-[4-(1H-pyrazol-4-yl)-1H-indazol-7-yl]pyridazin-3-yl]-8-azabicyclo[3.2.1]octan-3-amine] | – | < 0.5 | – | – |
| CN(c1ccc(-c2ccc(-n3cccn3)c3cn[nH]c23)nn1)[C@@H]1C[C@H]2CC[C@@H](C1)N2 [Compound 105, (1R,3R,5S)—N-methyl-N-[6-[4-(pyrazol-1-yl)-1H-indazol-7-yl]pyridazin-3-yl]-8-azabicyclo[3.2.1]octan-3-amine] | < 0.5 | < 0.5 | – | – |
| C[C@H]1C[C@@H](N(C)c2ccc(-c3ccc(-c4cn[nH]c4)c4cc[nH]c34)nn2)CCN1 [Compound 108, N-methyl-N-[(2S,4S)-2-methylpiperidin-4-yl]-6-[4-(1H-pyrazol-4-yl)-1H-indol-7-yl]pyridazin-3-amine] | > 5 | > 5 | – | – |
| CN(c1ccc(-c2ccc(-c3cn[nH]c3)c3cc[nH]c23)nn1)[C@@H]1C[C@H]2CC[C@@H](C1)N2 [Compound 112, (1R,3S,5S)—N-methyl-N-[6-[4-(1H-pyrazol-4-yl)-1H-indol-7-yl]pyridazin-3-yl]-8-azabicyclo[3.2.1] octan-3-amine] | < 0.5 | 0.5 to 5 | – | – |
| CN(c1ccc(-c2ccc(-n3cccn3)c3cc[nH]c23)nn1)[C@@H]1C[C@H]2CC[C@@H](C1)N2 [Compound 113, (1R,3R,5S)—N-methyl-N-[6-[4-(pyrazol-1-yl)-1H-indol-7-yl]pyridazin-3-yl]-8-azabicyclo[3.2.1]octan-3-amine] | 0.5 to 5 | > 5 | – | – |
| C[C@@H]1C[C@H](N(C)c2ccc(-c3ccc(-c4cn[nH]c4)c4nn[nH]c34)nn2)CCN1 [Compound 115] | – | > 5 | – | – |
| C[C@@H]1C[C@H](N(C)c2ccc(-c3ccc(-n4cccn4)c4nn[nH]c34)nn2)CCN1 [Compound 117, N-methyl-N-[(2R,4R)-2-methylpiperidin-4-yl]-6-[7-(pyrazol-1-yl)-3H-1,2,3-benzotriazol-4-yl]pyridazin-3-amine] | > 5 | > 5 | – | – |
| CN(c1ccc(-c2ccc(-c3cn[nH]c3)c3nn[nH]c23)nn1)[C@@H]1C[C@H]2CC[C@@H](C1)N2 [Compound 118, (1R,3S,5S)—N-methyl-N-[6-[7-(1H-pyrazol-4-yl)-3H-1,2,3-benzotriazol-4-yl]pyridazin-3-yl]-8-azabicyclo[3.2.1]octan-3-amine] | 0.5 to 5 | 0.5 to 5 | – | – |
| CN(c1ccc(-c2ccc(-n3cccn3)c3nn[nH]c23)nn1)[C@@H]1C[C@H]2CC[C@@H](C1)N2 [Compound 119, (1R,3S,5S)—N-methyl-N-[6-[7-(pyrazol-1-yl)-3H-1,2,3-benzotriazol-4-yl]pyridazin-3-yl]-8-azabicyclo[3.2.1]octan-3-amine] | 0.5 to 5 | > 5 | – | – |
| C[C@@H]1C[C@H](N(C)c2ccc(-c3ccc(-c4cn[nH]c4)c4c3NC(=O)C4)nn2)CCN1 [Compound 121, 7-(6-[methyl[(2R,4R)-2-methylpiperidin-4-yl]amino]pyridazin-3-yl)-4-(1H-pyrazol-4-yl)-1,3-dihydroindol-2-one] | – | > 5 | – | – |
| CN(c1ccc(-c2ccc(-c3cn[nH]c3)c3ccsc23)nn1)C1CC(C)(C)NC(C)(C)C1 [Compound 131, N-methyl-6-[4-(1H-pyrazol-4-yl)-1-benzothiophen-7-yl]-N-(2,2,6,6-tetramethylpiperidin-4-yl)pyridazin-3-amine] | > 5 | > 5 | – | – |
| CN(c1ccc(-c2ccc(-c3cn[nH]c3)c3ncsc23)nn1)C1CC(C)(C)NC(C)(C)C1 [Compound 132, N-methyl-6-[4-(1H-pyrazol-4-yl)-1,3-benzothiazol-7-yl]-N-(2,2,6,6-tetramethylpiperidin-4-yl)pyridazin-3-amine] | < 0.5 | < 0.5 | – | – |
| CN(c1ccc(-c2ccc(-c3cn[nH]c3)c3cn[nH]c23)nn1)C1CC(C)(C)NC(C)(C)C1 [Compound 137, N-methyl-6-[4-(1H-pyrazol-4-yl)-1H-indazol-7-yl]-N-(2,2,6,6-tetramethylpiperidin-4-yl)pyridazin-3-amine] | 0.5 to 5 | 0.5 to 5 | – | – |
| CC1(C)CC(Oc2ccc(-c3ccc(-c4cn[nH]c4)c4cn[nH]c34)nn2)CC(C)(C)N1 [Compound 138, 4-(1H-pyrazol-4-yl)-7-[6-[(2,2,6,6-tetramethylpiperidin-4-yl)oxy]pyridazin-3-yl]-1H-indazole] | < 0.5 | 0.5 to 5 | – | – |
| CN(c1ccc(-c2ccc(-c3c[nH]nn3)c3cn[nH]c23)nn1)[C@@H]1C[C@H]2CC[C@@H](C1)N2 [Compound 141] | < 0.5 | < 0.5 | – | – |
| c1n[nH]cc1-c1ccc(-c2ccc(O[C@@H]3C[C@H]4CC[C@@H](C3)N4)nn2)c2[nH]ncc12 [Compound 142, 7-[6-[(1R,3S,5S)-8-azabicyclo[3.2.1]octan-3-yloxy]pyridazin-3-yl]-4-(1H-pyrazol-4-yl)-1H-indazole] | < 0.5 | 0.5 to 5 | – | – |

| Structure (SMILES) | AC50 [1] [µM] | AC50 [2] [µM] | AC50 [3] [µM] | AC50 [4] [µM] |
| --- | --- | --- | --- | --- |
| CN(c1ccc(-c2ccc(-c3cnn(C)c3)c3cn[nH]c23)nn1)[C@@H]1C[C@H]2CC[C@@H](C1)N2 [Compound 143] | < 0.5 | 0.5 to 5 | – | – |
| CN(c1ccc(-c2ccc(-c3cn[nH]c3)c3cn[nH]c23)nn1)[C@H]1C[C@]2(C)CC[C@](C)(C1)N2 [Compound 146, N,1,5-trimethyl-N-[6-[4-(1H-pyrazol-4-yl)-1H-indazol-7-yl]pyridazin-3-yl]-8-azabicyclo[3.2.1]octan-3-amine] | < 0.5 | < 0.5 | – | – |
| CN(c1cnc(-c2cc(F)c(-c3cn[nH]c3)c3cn[nH]c23)nn1)[C@@H]1C[C@H]2CC[C@@H](C1)N2 [Compound 149] | < 0.5 | < 0.5 | – | – |
| CN(c1ccc(-c2ccc(-n3cccn3)c3cn[nH]c23)nn1)C1CC(C)(C)NC(C)(C)C1 [Compound 150, N-methyl-6-[4-(pyrazol-1-yl)-1H-indazol-7-yl]-N-(2,2,6,6-tetramethylpiperidin-4-yl)pyridazin-3-amine] | 0.5 to 5 | 0.5 to 5 | – | – |
| C[C@H]1C[C@H](N(C)c2ccc(-c3ccc(-c4cn[nH]c4)c4cc[nH]c34)nn2)CCN1 [Compound 157] | – | > 5 | – | – |
| C[C@H]1C[C@H](N(C)c2ccc(-c3ccc(-n4cccn4)c4cc[nH]c34)nn2)CCN1 [Compound 158] | > 5 | > 5 | – | – |
| C[C@H]1C[C@@H](N(C)c2ccc(-c3ccc(-n4cccn4)c4cn[nH]c34)nn2)CCN1 [Compound 159] | > 5 | > 5 | – | – |
| C[C@H]1C[C@@H](N(C)c2ccc(-c3ccc(-c4cn[nH]c4)c4cn[nH]c34)nn2)CCN1 [Compound 160] | > 5 | > 5 | – | – |
| [2H]C([2H])([2H])N(c1ccc(-c2ccc(-c3cn[nH]c3)c3ncsc23)nn1)C1CC(C)(C)NC(C)(C)C1 [Compound 231, N-(2H3)methyl-6-[4-(1H-pyrazol-4-yl)-1,3-benzothiazol-7-yl]-N-(2,2,6,6-tetramethylpiperidin-4-yl)pyridazin-3-amine] | – | – | 0.1 to 1 | 0.1 to 1 |
| COc1cc(-c2ccc(-c3ccc(N(C)C4CC(C)(C)NC(C)(C)C4)nn3)c3ncsc23)cnn1 [Compound 233] | – | – | 0.1 to 1 | 0.1 to 1 |
| CN(c1ccc(-c2ccc(-c3cnnc(O)c3)c3scnc23)nn1)C1CC(C)(C)NC(C)(C)C1 [Compound 234] | – | – | > 10 | > 10 |
| CN1C[C@@H]2[C@H](C1)[C@H]2N(C)c1ccc(-c2ccc(-c3cn[nH]c3)c3ncsc23)nn1 [Compound 235, (exo)-N,3-dimethyl-N-{6-[4-(1H-pyrazol-4-yl)-1,3-benzothiazol-7-yl]pyridazin-3-yl}-3-azabicyclo[3.1.0]hexan-6-amine hydrochloride] | – | – | > 10 | > 10 |
| c1n[nH]cc1-c1ccc(-c2ccc(NC3CNC3)nn2)c2[nH]ncc12 [Compound 237] | – | – | > 10 | > 10 |
| c1n[nH]cc1-c1ccc(-c2ccc(N3CCC4(CC3)CNC4)nn2)c2[nH]ncc12 [Compound 238] | – | – | > 10 | > 10 |
| c1n[nH]cc1-c1ccc(-c2ccc(N3CCC4(CCNCC4)C3)nn2)c2[nH]ncc12 [Compound 239] | – | – | > 10 | > 10 |
| c1n[nH]cc1-c1ccc(-c2ccc(N3CCC4(CCNC4)CC3)nn2)c2[nH]ncc12 [Compound 240] | – | – | > 10 | > 10 |
| c1n[nH]cc1-c1ccc(-c2ccc(N3CCNCC3)nn2)c2[nH]ncc12 [Compound 241] | – | – | > 10 | 1 to 10 |
